According to ChEMBL document CHEMBL1129993, “Synthesis and biological characterization of 1,4,5,6-tetrahydropyrimidine and 2-amino-3,4,5,6-tetrahydropyridine derivatives as selective m1 agonists” (J Med Chem, 1997):

Tests used:
[1] = molecular target: Muscarinic acetylcholine receptor M3 (Mus musculus) (UniProt Q9ERZ3); assay: Percent inhibition (high) of [3H](R)-QNB binding to Muscarinic acetylcholine receptor M3 expressed in A9 L cell line; type: cell-based; settings: A9L, concentration not given here
Chain of Muscarinic acetylcholine receptor M3 (Mus musculus) (Q9ERZ3 whole entry): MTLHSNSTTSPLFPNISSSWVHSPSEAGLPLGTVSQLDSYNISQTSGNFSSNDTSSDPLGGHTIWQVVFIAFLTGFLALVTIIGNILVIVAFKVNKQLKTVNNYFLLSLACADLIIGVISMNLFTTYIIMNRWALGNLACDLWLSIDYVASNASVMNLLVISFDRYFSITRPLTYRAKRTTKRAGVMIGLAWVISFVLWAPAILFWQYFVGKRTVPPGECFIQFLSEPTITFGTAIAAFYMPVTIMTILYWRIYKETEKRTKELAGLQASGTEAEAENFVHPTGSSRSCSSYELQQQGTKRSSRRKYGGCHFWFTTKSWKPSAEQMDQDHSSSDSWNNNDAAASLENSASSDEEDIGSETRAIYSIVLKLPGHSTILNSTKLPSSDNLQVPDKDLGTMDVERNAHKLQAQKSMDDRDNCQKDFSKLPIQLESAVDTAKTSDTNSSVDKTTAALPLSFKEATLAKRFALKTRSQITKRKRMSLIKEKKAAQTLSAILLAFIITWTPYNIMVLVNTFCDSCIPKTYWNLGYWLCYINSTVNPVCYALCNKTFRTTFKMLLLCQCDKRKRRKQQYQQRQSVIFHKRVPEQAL

[2] = molecular target: Muscarinic acetylcholine receptor M3 (Mus musculus) (UniProt Q9ERZ3); assay: Binding affinity (high) of [3H](R)-QNB binding to Muscarinic acetylcholine receptor M3 expressed in A9 L cell line; type: cell-based; settings: A9L
[3] = molecular target: T1, Muscarinic acetylcholine receptor M2 (Mus musculus) (UniProt Q9ERZ4); settings: A9L
T1 sequence (whole entry): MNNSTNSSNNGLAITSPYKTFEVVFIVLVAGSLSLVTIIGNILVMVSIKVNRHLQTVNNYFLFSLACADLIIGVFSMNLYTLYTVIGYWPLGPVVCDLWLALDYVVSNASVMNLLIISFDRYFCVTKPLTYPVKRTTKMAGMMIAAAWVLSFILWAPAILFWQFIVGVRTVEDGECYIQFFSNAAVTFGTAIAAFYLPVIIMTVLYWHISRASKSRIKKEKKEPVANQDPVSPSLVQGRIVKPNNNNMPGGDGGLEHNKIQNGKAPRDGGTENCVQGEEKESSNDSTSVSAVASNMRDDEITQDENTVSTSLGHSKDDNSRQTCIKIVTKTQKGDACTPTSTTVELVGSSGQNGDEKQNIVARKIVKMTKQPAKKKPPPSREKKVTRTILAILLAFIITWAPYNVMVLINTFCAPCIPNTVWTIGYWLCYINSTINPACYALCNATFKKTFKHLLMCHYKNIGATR

[4] = molecular target: T1, Muscarinic acetylcholine receptor M2 (Mus musculus); settings: A9L; remark: listed apart in the source
[5] = molecular target: Muscarinic acetylcholine receptor M3 (Mus musculus) (UniProt Q9ERZ3); settings: A9L
Description: Binding affinity (low) of [3H](R)-QNB binding to Muscarinic acetylcholine receptor M3 expressed in A9 L cell line

[6] = molecular target: T2, Muscarinic acetylcholine receptor M1 (Mus musculus) (UniProt P12657); assay: Percent inhibition (high) of [3H](R)-QNB binding to Muscarinic acetylcholine receptor M1 expressed in A9 L cell line in the absence of 300 uM GTP-gamma-S; type: cell-based; settings: A9L
T2 sequence (whole entry): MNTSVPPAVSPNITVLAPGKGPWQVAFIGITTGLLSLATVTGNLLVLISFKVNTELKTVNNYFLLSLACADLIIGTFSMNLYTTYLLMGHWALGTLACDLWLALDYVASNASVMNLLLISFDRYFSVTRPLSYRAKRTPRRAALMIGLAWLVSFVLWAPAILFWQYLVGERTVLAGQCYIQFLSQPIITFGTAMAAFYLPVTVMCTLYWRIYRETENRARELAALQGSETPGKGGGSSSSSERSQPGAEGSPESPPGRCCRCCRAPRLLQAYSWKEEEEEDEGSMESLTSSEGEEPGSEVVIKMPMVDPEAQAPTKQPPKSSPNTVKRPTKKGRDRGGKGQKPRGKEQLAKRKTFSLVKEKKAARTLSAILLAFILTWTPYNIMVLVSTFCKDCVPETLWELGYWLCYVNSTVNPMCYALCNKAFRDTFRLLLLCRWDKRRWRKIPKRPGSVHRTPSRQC

Compound | inhibition [1] | KH [2] | KH [3] | KL [4] | KL [5] | inhibition [6]
C[N+](C)(C)CCOC(N)=O | 19% | 56 nM | 0.81 nM | 12 nM | 8.4 nM | –
Cc1noc(C2CN=CNC2)n1 (stereo not given) | 95% | – | – | 0.46 nM | 0.57 nM | 30.9%
CC#CCOC(=O)C1CN=CNC1 (stereo not given) | – | – | – | – | – | 23.4%
C#CCCOC(=O)C1CN=CNC1 (stereo not given) | – | – | – | – | – | 23.2%
CCCC#Cc1noc(C2CN=CNC2)n1 (stereo not given) | – | – | – | – | – | 32.5%
C#CCOC(=O)C1CN=CNC1 (stereo not given) | – | – | – | – | – | 31.5%
COC(=O)C1CN=CNC1 (stereo not given) | – | – | – | 3.3 nM | 3.3 nM | 23.5%
Cc1noc(C2=CCCN(C)C2)n1 | 29% | 16 nM | – | 0.087 nM | 0.46 nM | –
